Data as given in PMC12655682, “Screening-Identified Oxazole-4-Carboxamide KB-2777 Exhibits In Vitro Anti-Coronavirus Activity” (Pharmaceutics, 2025).
Where two headings read alike, the source gives them in different places.

Key:
HCoV-NL63 [1] = test: Primary antiviral screening (virus inhibition) in HCoV-NL63-infected LLC-MK2 cells; format: cell-based, Human coronavirus NL63; conditions: for SI (=CC50/EC50): HCoV-NL63/LLC-MK2; for antiviral effect: HCoV-NL63/LLC-MK2, up to 25 µM
Protocol: For antiviral activity, cells in 96-well plates were infected and treated with test compounds as indicated and incubated for 48–72 h. Cell viability was quantified by WST (EZ-Cytox) at 450 nm on the same reader. Cytoprotective effect was calculated by normalizing to infected DMSO controls and converting to percent protection: % Protection = ((V_drug + virus − V_virus-only)/(V_mock − V_virus-only)) × 100.
We screened 11 oxazole-4-carboxamide derivatives (Figure 1) against HCoV-NL63 in LLC-MK2 cells and quantified antiviral activity and cytotoxicity (Figure 2). Several derivatives inhibited NL63 with distinct selectivity profiles. […] Visible crystals or precipitates formed at ≥50 µM without loss of viability or morphological change; therefore, downstream assays were performed at ≤25 µM.

[2] = Cytotoxicity (EZ-Cytox WST) in LLC-MK2 cells; format: cell-based; conditions: rhesus monkey, 72 h exposure
Protocol: Cells were seeded at 2 × 10^4 cells per well in 96-well plates and, after overnight attachment, exposed to test compounds for 72 h in maintenance medium. The final DMSO concentration was ≤0.1% (v/v) for all conditions, including vehicle controls. Cell viability was quantified using EZ-Cytox WST reagent (DoGenBio, Seoul, Republic of Korea) according to the manufacturer’s instructions; absorbance was read at 450 nm on a SpectraMax i3x microplate reader (Molecular Devices, San Jose, CA, USA). Viability for each well was normalized to the mean of vehicle-treated (mock) controls on the same plate and expressed as percent viability. Each condition included technical replicates (n = 3) per experiment. Concentration–response data from ≥3 independent experiments were fit to a four-parameter logistic (4PL) model in GraphPad Prism 10.1.2 (GraphPad Software, San Diego, CA, USA) (log10-transformed concentrations; bottom and top unconstrained).

HCoV-NL63 [3] = test: Combination (concentration matrix, ZIP synergy) HCoV-NL63/LLC-MK2; format: cell-based, Human coronavirus NL63; conditions: HCoV-NL63/LLC-MK2, alone
Protocol: Concentration matrices were generated within the non-cytotoxic range for KB-2777 + nirmatrelvir (HCoV-NL63/LLC-MK2) and KB-2777 + GS-441524 (HCoV-OC43/Vero E6). Antiviral activity was measured at 48 h post-infection. Interaction surfaces and ZIP synergy scores were computed using SynergyFinder (v3) with default normalization (virus + DMSO control = 0% inhibition). Heatmaps and δ-surfaces were exported directly from SynergyFinder.

[4] = Human coronavirus NL63, LLC-MK2, HCoV-NL63/LLC-MK2, primary screen, read-out: EC50
[5] = HCoV-NL63/LLC-MK2, primary screen, read-out: EC50
[6] = Human coronavirus NL63, LLC-MK2, HCoV-NL63/LLC-MK2, primary screen

| SMILES | SI (=CC50/EC50) (HCoV-NL63 [1]) | EC50 (HCoV-NL63 [1]; [4]) [µM] | CC50 at 72 h [2] [µM] | EC50 (HCoV-NL63 [1]; [5]) [µM] | EC50 (HCoV-NL63 [1]; [6]) [µM] | antiviral effect (HCoV-NL63 [1]) | antiviral activity of the single agent in the combination assay (HCoV-NL63 [3]) |
| --- | --- | --- | --- | --- | --- | --- | --- |
| COC(=O)[C@H](C)NC(=O)c1nc(-c2ccc(C(F)(F)F)cc2)oc1-c1ccc(SC)cc1 [KB-2738] | 2.84 | 7.7 | 21.8 | – | – | – | – |
| COC(=O)[C@H](C)NC(=O)c1nc(-c2ccc(C(F)(F)F)cc2)oc1-c1cccc(SC)c1 [KB-2742] | <5.40 | 4.63 | < 25 | – | – | – | – |
| COC(=O)[C@H](C)NC(=O)c1nc(-c2ccc(C(F)(F)F)cc2)oc1-c1cccc(OC)c1 [KB-2767] | 3.33 | 9.26 | 30.8 | – | – | – | – |
| COC(=O)[C@H](CC(C)C)NC(=O)c1nc(-c2ccc(C(F)(F)F)cc2)oc1-c1cccc(SC)c1 [KB-2768] | 5.12 | 6.66 | 34.1 | – | – | – | – |
| CSc1cccc(-c2oc(-c3ccc(C(F)(F)F)cc3)nc2C(=O)N[C@@H](C)C(N)=O)c1 [KB-2769] | <2.67 | 2.34 | < 6.25 | – | – | – | – |
| CSc1cccc(-c2oc(-c3ccc(C(F)(F)F)cc3)nc2C(=O)N[C@@H](CC(C)C)C(N)=O)c1 [KB-2771] | – | – | < 25 | 4.27 | 4 to 5 | – | – |
| COC(=O)C(CC1CCNC1=O)NC(=O)c1nc(-c2ccc(C(F)(F)F)cc2)oc1-c1cccc(SC)c1 (stereo not shown) [KB-2772] | – | – | > 50 | – | – | no detectable antiviral effect | – |
| COC(=O)C(CC1CCNC1=O)NC(=O)c1nc(-c2ccc(C(F)(F)F)cc2)oc1-c1cccc(OC)c1 (stereo not shown) [KB-2773] | – | – | < 25 | – | – | no detectable antiviral effect | – |
| COC(=O)[C@H](CC(C)C)NC(=O)c1nc(-c2ccc(C(F)(F)F)cc2)oc1-c1cccc(OC)c1 [KB-2774] | – | – | 25.2 | 4.39 | 4 to 5 | – | – |
| COc1cccc(-c2oc(-c3ccc(C(F)(F)F)cc3)nc2C(=O)N[C@@H](C)C(N)=O)c1 [KB-2775] | – | – | 3.12 | – | – | no detectable antiviral effect | – |
| CC(C)(C)[C@H](NC(=O)C(F)(F)F)C(=O)N1C[C@H]2[C@@H]([C@H]1C(=O)N[C@H](C#N)C[C@@H]1CCNC1=O)C2(C)C [nirmatrelvir] | – | – | – | – | – | – | limited activity |
